# Test results: patent publication US7396846B2, “Growth hormone secretagogues” (Eli Lilly and Company, priority 2002, dated 2008)
# pEC50: −log10 of the molar value. Structures can show the parent of a compound that is named as a salt.
# Test system: pituitary cells
# Test: Pituitary Cell Culture Assay for Growth Hormone (GH) Secretion
# Format: cell-based
# Conditions: 0.75 h; stimulation of GH secretion, cultured rat anterior pituitary cells, 45 min at room temperature, rat GH radioimmunoassay
# Description: Growth hormone secretagogue activity can be determined using a typical assay which may employ pituitary cells established in culture, followed by a challenge with the various compounds of formula I, and the levels of growth hormone determined accordingly. Growth hormone levels may be calculated using various radioimmunoassay techniques known to those of skill in the art. One example of such an assay is detailed herein.
# Pituitary Cell Culture Assay for Growth Hormone (GH) Secretion
# Fifteen 250 g male Sprague-Dawley rats are used for each assay. The animals are killed by decapitation and anterior pituitaries are removed and placed into ice cold culture medium. The pituitaries are sectioned in small pieces and enzymatically digested using trypsin (Difco) to weaken connective tissue. Pituitary cells are dispersed by mechanical agitation, collected, pooled and then seeded into 96-well plates (50,000 cells/well). After 5 days of culture, the cells formed as monolayer (70-80% confluent). Cells are then washed with medium (without phenol red) and incubated for 90 min at 37° C. Afterwards the cells are challenged to secrete GH by the addition of GH secretagogues to the medium. After 45 min at room temperature, the medium is removed, filtered and stored frozen until radioimmunoassays for rat GH were performed. Doses of secretagogue are added in triplicates. Compounds disclosed herein are active in the assay as described. The compounds cause a stimulation of GH secretion resulting in at least 20% increase of the basal level of GH with and EC50<500 nM. […] Both EC50 and efficacy values were calculated by the 4-parameter logistic equation. Such values were pooled and represented as mean+/−standard error, when appropriate.
row,SMILES,pEC50
1,"CCN(CC1=C(c2ccc(S(C)(=O)=O)cc2)S(=O)(=O)NC12CCCCC2)C(=O)[C@@H](COCc1cc(F)ccc1F)NC(=O)C(C)(C)N [Example 2, 2-(R)-2-(2-Amino-2-methylpropionylamino)-3-(2,5-difluorophenyl)methoxypropionic acid N-ethyl-N-(3-(4-methanesulfonyl-phenyl)-2,2-dioxo-2-thia-1-azaspiro[4.5]dec-3-ene-4-ylmethyl)amide Hydrochloride]",9.64
2,"CCN(CC1=C(c2ccc(S(C)(=O)=O)cc2)S(=O)(=O)NC12CCCCC2)C(=O)[C@@H](COCc1ccc(F)c(F)c1)NC(=O)C(C)(C)N [Example 4, 2-(R)-2-(2-Amino-2-methylpropionylamino)-3-(3,4-difluorophenyl)methoxypropionic acid N-ethyl-N-(3-(4-methanesulfonyl-phenyl)-2,2-dioxo-2-thia-1-azaspiro[4.5]dec-3-ene-4-ylmethyl)amide Hydrochloride]",9.05
3,"CCN(CC1=C(c2ccc(S(C)(=O)=O)cc2)S(=O)(=O)NC12CCCCC2)C(=O)[C@@H](COCc1cc(F)cc(F)c1)NC(=O)C(C)(C)N [Example 5, 2-(R)-2-(2-Amino-2-methylpropionylamino)-3-(3,5-difluorophenyl)methoxypropionic acid N-ethyl-N-(3-(4-methanesulfonyl-phenyl)-2,2-dioxo-2-thia-1-azaspiro[4.5]dec-3-ene-4-ylmethyl)amide Hydrochloride]",9.22
4,"CN(CC1=C(c2ccc(Cl)cc2)S(=O)(=O)NC1(C)C)C(=O)[C@@H](COCc1ccc(F)cc1)NC(=O)C(C)(C)N [Example 7, 2-(R)-2-(2-Amino-2-methylpropionylamino)-3-(4-fluorophenyl)methoxy propionic acid N-[5-(4-chlorophenyl)-3,3-dimethyl-1,1-dioxo-2,3-dihydroisothiazol-4-ylmethyl]-N-methylamide Hydrochloride]",8.77

# Same assay, conditions: stimulation of GH secretion, cultured rat anterior pituitary cells, 45 min at room temperature, rat GH radioimmunoassay
row,SMILES,pEC50
1,"CCN(CC1=C(c2ccc(Cl)cc2)S(=O)(=O)NC1(C)C)C(=O)[C@@H](COCc1ccc(F)cc1F)NC(=O)C(C)(C)N [Example 12, 2-(R)-2-(2-Amino-2-methylpropionylamino)-3-(2,4-difluorophenyl)methoxy propionic acid N-[5-(4-chlorophenyl)-3,3-dimethyl-1,1-dioxo-2,3-dihydroisothiazol-4-ylmethyl]-N-ethylamide Hydrochloride]",8.10
2,"CCN(CC1=C(c2ccc(Cl)cc2)S(=O)(=O)NC1(C)C)C(=O)[C@@H](COCc1cc(F)ccc1F)NC(=O)C(C)(C)N [Example 15, 2-(R)-2-(2-Amino-2-methylpropionylamino)-3-(2,5-difluorophenyl)methoxy propionic acid N-[5-(4-chlorophenyl)-3,3-dimethyl-1,1-dioxo-2,3-dihydroisothiazol-4-ylmethyl]-N-ethylamide Hydrochloride]",8.68
3,"CCN(CC1=C(c2ccc(Cl)cc2)S(=O)(=O)NC1(C)C)C(=O)[C@@H](COCc1c(F)cccc1F)NC(=O)C(C)(C)N [Example 16, 2-(R)-2-(2-Amino-2-methylpropionylamino)-3-(2,6-difluorophenyl)methoxy propionic acid N-[5-(4-chlorophenyl)-3,3-dimethyl-1,1-dioxo-2,3-dihydroisothiazol-4-ylmethyl]-N-ethylamide Hydrochloride]",8.96
